According to ChEMBL document CHEMBL1201862, “PubChem BioAssay data set” (2004):
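Tested at 5 concentrations; 48 h exposure; 96-well plates; endpoints linearly interpolated, else capped at highest concentration. Here, GI50 denotes the concentration required for 50% inhibition of growth.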 Activity calls are given as the source filed them. Rule as the data show it: active = GI50 up to about 1.1 µM and inactive = higher.

Key:
Experiment in all cases: NCI anticancer screen, dose series, 48 h
786-0 = test system: 786-0
SNB-75 = test system: SNB-75
SW-620 = test system: SW-620
CAKI-1 = test system: CAKI-1
OVCAR-5 = test system: OVCAR-5
SK-MEL-2 = test system: SK-MEL-2
UO-31 = test system: UO-31
OVCAR-8 = test system: OVCAR-8
OVCAR-3 = test system: OVCAR-3
SN12C = test system: SN12C
U-251 = test system: U-251
HL-60 = test system: HL-60
SK-MEL-5 = test system: SK-MEL-5
SK-OV-3 = test system: SK-OV-3
HT-29 = test system: HT-29
HCT-15 = test system: HCT-15

Row | Structure (SMILES) | GI50 (786-0) | GI50 (SNB-75) | GI50 (SW-620) | GI50 (CAKI-1) | GI50 (OVCAR-5) | GI50 (SK-MEL-2) | GI50 (UO-31) | GI50 (OVCAR-8) | GI50 (OVCAR-3) | GI50 (SN12C) | GI50 (U-251) | GI50 (HL-60) | GI50 (SK-MEL-5) | GI50 (SK-OV-3) | GI50 (HT-29) | GI50 (HCT-15) [µM]
1 | CC1NOC(=O)C1/N=N/c1ccccc1Cl (stereo not given) | 26.5 µM (inactive) | 21.2 µM (inactive) | > 100 µM (inactive) | 25.5 µM (inactive) | 34.8 µM (inactive) | 25.4 µM (inactive) | 13.9 µM (inactive) | > 100 µM (inactive) | 33.8 µM (inactive) | 40.6 µM (inactive) | 42.4 µM (inactive) | 20 µM (inactive) | 13.8 µM (inactive) | 28.3 µM (inactive) |  | 
2 | COCC1N=C(c2ccc(OC)c(OCc3ccccc3)c2OC)O[C@H]1c1ccccc1 (stereo not given in full) | 29.9 µM (inactive) | 25.3 µM (inactive) | 34.8 µM (inactive) |  | 25 µM (inactive) | 23.4 µM (inactive) | 4.89 µM (inactive) | 23.1 µM (inactive) | 16 µM (inactive) | 20.5 µM (inactive) | 18.1 µM (inactive) | 15.2 µM (inactive) | 11.9 µM (inactive) | 46.6 µM (inactive) | 19.8 µM (inactive) | 17.5
3 | O=C1C(=O)N(c2cc(Cl)ccc2Cl)C(=O)C(=O)C1c1nc2ccccc2o1 | > 100 µM (inactive) | > 67.6 µM (inactive) | > 100 µM (inactive) | > 100 µM (inactive) | > 100 µM (inactive) | > 100 µM (inactive) | > 70.8 µM (inactive) | > 100 µM (inactive) | > 67.5 µM (inactive) | > 100 µM (inactive) | > 100 µM (inactive) | 39.1 µM (inactive) | > 100 µM (inactive) | > 100 µM (inactive) | > 100 µM (inactive) | > 100
4 | O=C1NN=C(c2ccc([N+](=O)[O-])cc2)C1n1nc(-c2ccccc2)c2ccccc2c1=O (stereo not given) | > 100 µM (inactive) | > 95.5 µM (inactive) | > 34.2 µM (inactive) | > 100 µM (inactive) | > 100 µM (inactive) | > 100 µM (inactive) | > 100 µM (inactive) | > 88.1 µM (inactive) | > 100 µM (inactive) | > 100 µM (inactive) | > 95.7 µM (inactive) | > 45.6 µM (inactive) | > 100 µM (inactive) | > 100 µM (inactive) | > 100 µM (inactive) | > 45.2
5 | CC(=O)NNc1nc(C)c(C(=O)NNC(=O)C(=O)Nc2ccc(Cl)cc2)s1 | > 100 µM (inactive) |  | 54.6 µM (inactive) |  | > 100 µM (inactive) | > 100 µM (inactive) | > 100 µM (inactive) | > 100 µM (inactive) | 28.9 µM (inactive) | > 100 µM (inactive) | > 100 µM (inactive) | > 100 µM (inactive) | > 100 µM (inactive) | > 100 µM (inactive) | > 100 µM (inactive) | > 100
6 | COc1cc2ccc3c4c(OC)cc(OC)c(OC)c4c([O-])[n+](C)c3c2cc1OC | > 100 µM (inactive) | 11.8 µM (inactive) |  | > 20.6 µM (inactive) | 11.1 µM (inactive) | 21.9 µM (inactive) | > 34 µM (inactive) | 45.3 µM (inactive) | 7.13 µM (inactive) | 1.74 µM (inactive) | 1.39 µM (inactive) | 1.33 µM (inactive) | 9.02 µM (inactive) | > 33 µM (inactive) | 6.47 µM (inactive) | 
7 | NC(=O)c1csc(CCCCCCc2nc(C(N)=O)cs2)n1 | > 45.3 µM (inactive) | > 100 µM (inactive) | > 40.3 µM (inactive) | > 100 µM (inactive) | > 100 µM (inactive) | > 100 µM (inactive) | > 100 µM (inactive) | > 100 µM (inactive) | > 100 µM (inactive) | > 100 µM (inactive) | > 42.5 µM (inactive) | > 100 µM (inactive) | > 100 µM (inactive) | > 100 µM (inactive) | > 40.9 µM (inactive) | > 100
8 | COc1ccc(C)cc1C1CCC(=O)O1 (stereo not given) | > 100 µM (inactive) | > 100 µM (inactive) | > 100 µM (inactive) |  | > 100 µM (inactive) | > 100 µM (inactive) | > 100 µM (inactive) | > 100 µM (inactive) | > 100 µM (inactive) | > 100 µM (inactive) | > 100 µM (inactive) | > 100 µM (inactive) | > 100 µM (inactive) | > 100 µM (inactive) | > 100 µM (inactive) | > 100
9 | Cc1nc(N)nn1C1OCC(O)C(O)C1O (stereo not given) | > 100 µM (inactive) | 93.5 µM (inactive) | > 100 µM (inactive) | > 100 µM (inactive) |  | > 100 µM (inactive) | > 100 µM (inactive) | > 100 µM (inactive) | > 100 µM (inactive) | > 100 µM (inactive) | > 100 µM (inactive) | > 100 µM (inactive) | > 100 µM (inactive) | > 100 µM (inactive) | > 100 µM (inactive) | > 100
